Experimental data reported in patent US4308201A, “Phenylalanylvalylarginine derivative, process for producing same and method for measuring activity of enzymes using same” (Torii & Co., Ltd., priority 1978, dated 1981).
Residues, ends and D or L forms follow the SMILES beside them. *: point of attachment. pNA = O=[N+]([O-])c1ccc(N*)cc1; Bz = O=C(c1ccccc1)*

Experiments:
Type in all cases: biochemical
Kallikrein Plasma = experiment: Measurement of the activity of plasma kallikrein with the compound as substrate; details: methods of Example 3 and Comparative Example 2; p-nitroanilide substrate = 1.0
Kallikrein Tissue = experiment: Measurement of the activity of tissue kallikrein with the compound as substrate; details: methods of Example 3 and Comparative Example 2; p-nitroanilide substrate = 1.0
Factor Xa = experiment: Measurement of the activity of Factor Xa with the compound as substrate; details: methods of Example 3 and Comparative Example 2; p-nitroanilide substrate = 1.0
thrombin = experiment: Measurement of the activity of thrombin with the compound as substrate (naphthol liberated, FVB colour, absorbance); details: for relative sensitivity, Thrombin: methods of Example 3 and Comparative Example 2, p-nitroanilide substrate = 1.0
Protocol: To 1.7 ml of 50 mM phosphate buffer solution (pH 7.0) were added 0.1 ml of thrombin at various concentrations and 0.2 ml of N-benzoyl-L-phenylalanyl-L-valyl-L-arginine 1-naphthyl ester hydrochloride solution (1.5 mM), and the resulting mixture was subjected to incubation at 25° C. for 30 min. The mixture was cooled in iced water, and 0.1 ml of 1% FVB was added thereto. The resulting mixture was allowed to stand at 0° C. for 10 min, and 1 ml of glacial acetic acid was further added thereto. The color thus developed was measured as absorbance (505 nm) by means of a spectrophotometer, thereby determining the amount of the naphthol liberated by hydrolysis with the enzyme. As a control, the buffer solution same as above but free from thrombin was used. The amount of the naphthol liberated corresponded to the activity of the enzyme.
To 0.1 ml of thrombin were added 0.3 ml of Nα-tosyl-L-arginine methyl ester hydrochloride solution (10 micromoles/0.4 ml of 5% DMSO) and 0.6 ml of phosphate buffer solution (pH 7.4), and the resulting mixture was subjected to incubation at 37° C. for 30 min, after which 1.5 ml of a hydroxylamine solution (a mixture of equal amounts of 2 M NH2 OH hydrochloride and 3.5 M NaOH) was added thereto. The resulting mixture was allowed to stand at room temperature for 15 min. Thereto were added 1 ml of 18% trichloroacetic acid solution, 1 ml of 4 N hydrochloric acid, and 1 ml of 10% ferric chloride solution. The resulting mixture was thoroughly stirred and then centrifuged at 3,000 r.p.m. for 10 min. The color thus developed of the supernatant was measured as absorbance (530 l nm) by means of a spectrophotometer. The value obtained corresponds to the amount of the substrate remaining unhydrolyzed with thrombin, and therefore, and activity of the enzyme corresponds to the difference between the value obtained when no enzyme was used (control) and the value obtained after the enzyme reaction.
To 2.15 ml of […] tris HCl buffer solution (pH 8.0) were added 0.1 ml of thrombin at various concentrations and 0.25 ml of an N-benzoyl-L-phenylalanyl-L-valyl-L-arginine p-nitroanilide hydrochloride solution (1mM/H2 O), and the resulting mixture was subjected to incubation at 37° C. for 30 min. To the mixture was added 0.3 ml of glacial acetic acid, and the color developed was measured as absorbance (405 nm) by means of a spectrophotometer.

Urokinase = experiment: Measurement of the activity of urokinase with the compound as substrate; details: methods of Example 3 and Comparative Example 2; p-nitroanilide substrate = 1.0

relative sensitivity, Urokinase (Urokinase) | Compound | relative sensitivity, Kallikrein Plasma (Kallikrein Plasma) | relative sensitivity, Kallikrein Tissue (Kallikrein Tissue) | relative sensitivity, Factor Xa (Factor Xa) | relative sensitivity, Thrombin (thrombin) | sensitivity relative to that of Nα-tosyl-L-arginine methyl ester (thrombin; thrombin activity measured with the compound as substrate) | detection sensitivity relative to Comparative Example 2 (thrombin; versus N-benzoyl-L-phenylalanyl-L-valyl-L-arginine p-nitroanilide hydrochloride as substrate, standard curves of the drawing) | detection sensitivity relative to Comparative Example 1 (thrombin; versus Nα-tosyl-L-arginine methyl ester hydrochloride as substrate (hydroxamate method), standard curves of the drawing)
1.0 | CC(C)[C@H](NC(=O)[C@H](Cc1ccccc1)NC(=O)c1ccccc1)C(=O)N[C@@H](CCCNC(=N)N)C(=O)Nc1ccc([N+](=O)[O-])cc1.Cl [N-benzoyl-L-phenylalanyl-L-valyl-L-arginine p-nitroanilide hydrochloride, reference compound] (Bz-Phe-Val-Arg-pNA) | 1.0 | 1.0 | 1.0 | 1.0 | – | – | –
40 | CC(C)[C@H](NC(=O)[C@H](Cc1ccccc1)NC(=O)c1ccccc1)C(=O)N[C@@H](CCCNC(=N)N)C(=O)Oc1cccc2ccccc12.Cl [N-benzoyl-L-phenylalanyl-L-valyl-L-arginine 1-naphthyl ester hydrochloride] | 12.5 | 30 | 15 | 5.0 | about 31 times | about 5 times | about 30 times
